Assay results from patent US20120039847A1, “Hepatitis C Virus Inhibitors” (priority 2010, published 2012).

tested on: HCV genotype 1b replicon (2209-23 cells, Huh7); test: HCV replicon assay (Renilla luciferase reporter); format: cell-based; details: Hepatitis C virus, Huh-7, 72 h, Huh7-derived cell line 2209-23, three days incubation, luciferase readout

Going from COC(=O)N[C@H](C(=O)N1CCC[C@H]1C(=O)Nc1ccc2cc(-c3ccc(-c4cnc([C@@H]5CCCN5C(=O)[C@@H](NC(=O)OC)C(C)C)[nH]4)cc3)ccc2c1)C(C)C [I-1, ((S)-1-{(S)-2-[6-(4-{2-[(S)-1-((S)-2-Methoxycarbonylamino-3-methyl-butyryl)-pyrrolidin-2-yl]-3H-imidazol-4-yl}-phenyl)-naphthalen-2-ylcarbamoyl]-pyrrolidine-1-carbonyl}-2-methyl-propyl)-carbamic acid methyl ester] to COC(=O)N[C@H](C(=O)N1CCC[C@H]1C(=O)Nc1ccc2nc(-c3ccc(-c4cnc([C@@H]5CCCN5C(=O)[C@@H](NC(=O)OC)C(C)C)[nH]4)cc3)ccc2c1)C(C)C [I-3, ((S)-1-{(S)-2-[2-(4-{2-[(S)-1-((S)-2-Methoxycarbonylamino-3-methyl-butyryl)-pyrrolidin-2-yl]-3H-imidazol-4-yl}-phenyl)-quinolin-6-ylcarbamoyl]-pyrrolidine-1-carbonyl}-2-methyl-propyl)-carbamic acid methyl ester], the IC50 rises from 0.041 nM to 0.413 nM (10-fold). The first is the more potent here.

Going from COC(=O)N[C@H](C(=O)N1CCC[C@H]1C(=O)NC1CCCc2cc(-c3ccc(-c4cnc([C@@H]5CCCN5C(=O)[C@@H](NC(=O)OC)C(C)C)[nH]4)cc3)ccc21)C(C)C (stereo partly drawn) [I-2, [(S)-1-((S)-2-{5-[4-(5-{[(S)-1-((S)-2-Methoxycarbonylamino-3-methyl-butyryl)-pyrrolidine-2-carbonyl]-amino}-5,6,7,8-tetrahydro-naphthalen-2-yl)-phenyl]-1H-imidazol-2-yl}-pyrrolidine-1-carbonyl)-2-methyl-propyl]-carbamic acid methyl ester] to COC(=O)N[C@H](C(=O)N1CCC[C@H]1C(=O)NC1CCc2cc(-c3ccc(-c4cnc([C@@H]5CCCN5C(=O)[C@@H](NC(=O)OC)C(C)C)[nH]4)cc3)ccc21)C(C)C (stereo partly drawn) [I-4, [(S)-1-((S)-2-{5-[4-(1-{[(S)-1-((S)-2-Methoxycarbonylamino-3-methyl-butyryl)-pyrrolidine-2-carbonyl]-amino}-indan-5-yl)-phenyl]-1H-imidazol-2-yl}-pyrrolidine-1-carbonyl)-2-methyl-propyl]-carbamic acid methyl ester], the IC50 falls from 4 nM to 0.31 nM (13-fold). The second is the more potent here.

Going from COC(=O)N[C@H](C(=O)N1CCC[C@H]1C(=O)Nc1cccc2cc(-c3ccc(-c4cnc([C@@H]5CCCN5C(=O)[C@@H](NC(=O)OC)C(C)C)[nH]4)cc3)ccc12)C(C)C [I-5, [(S)-1-((S)-2-{5-[4-(5-{[(S)-1-((S)-2-Methoxycarbonylamino-3-methyl-butyryl)-pyrrolidine-2-carbonyl]-amino}-naphthalen-2-yl)-phenyl]-1H-imidazol-2-yl}-pyrrolidine-1-carbonyl)-2-methyl-propyl]-carbamic acid methyl ester] to COC(=O)N[C@H](C(=O)N1CCC[C@H]1C(=O)Nc1nccc2cc(-c3ccc(-c4cnc([C@@H]5CCCN5C(=O)[C@@H](NC(=O)OC)C(C)C)[nH]4)cc3)ccc12)C(C)C [I-6, [(S)-1-((S)-2-{5-[4-(1-{[(S)-1-((S)-2-Methoxycarbonylamino-3-methyl-butyryl)-pyrrolidine-2-carbonyl]-amino}-isoquinolin-6-yl)-phenyl]-1H-imidazol-2-yl}-pyrrolidine-1-carbonyl)-2-methyl-propyl]-carbamic acid methyl ester], the IC50 rises from 0.2 nM to 13.9 nM (70-fold). The first is the more potent here.

First: COC(=O)N[C@H](C(=O)N1CCC[C@H]1C(=O)Nc1ccc2cc(-c3ccc(-c4cnc([C@@H]5CCCN5C(=O)[C@@H](NC(=O)OC)C(C)C)[nH]4)cc3)ccc2n1)C(C)C [I-7, ((S)-1-{(S)-2-[6-(4-{2-[(S)-1-((S)-2-Methoxycarbonylamino-3-methyl-butyryl)-pyrrolidin-2-yl]-3H-imidazol-4-yl}-phenyl)-quinolin-2-ylcarbamoyl]-pyrrolidine-1-carbonyl}-2-methyl-propyl)-carbamic acid methyl ester]
Second: COC(=O)N[C@H](C(=O)N1CCC[C@H]1C(=O)Nc1nc2cc(-c3ccc(-c4cnc([C@@H]5CCCN5C(=O)[C@@H](NC(=O)OC)C(C)C)[nH]4)cc3)ccc2[nH]1)C(C)C [I-8, [(S)-1-((S)-2-{5-[4-(2-{[(S)-1-((S)-2-Methoxycarbonylamino-3-methyl-butyryl)-pyrrolidine-2-carbonyl]-amino}-1H-benzoimidazol-5-yl)-phenyl]-1H-imidazol-2-yl}-pyrrolidine-1-carbonyl)-2-methyl-propyl]-carbamic acid methyl ester]
The IC50 of the first is 2.5-fold lower: 0.15 nM for the first, 0.37 nM for the second. The first is the more potent here.

First: COC(=O)N[C@H](C(=O)N1CCC[C@H]1C(=O)NC1Cc2ccc(-c3ccc(-c4cnc([C@@H]5CCCN5C(=O)[C@@H](NC(=O)OC)C(C)C)[nH]4)cc3)cc2C1)C(C)C (stereo partly drawn) [I-9, ((S)-1-{(S)-2-[5-(4-{2-[(S)-1-((S)-2-Methoxycarbonylamino-3-methyl-butyryl)-pyrrolidin-2-yl]-3H-imidazol-4-yl}-phenyl)-indan-2-ylcarbamoyl]-pyrrolidine-1-carbonyl}-2-methyl-propyl)-carbamic acid methyl ester]
Second: COC(=O)N[C@H](C(=O)N1CCC[C@H]1C(=O)NC1CCc2cc(-c3ccc(-c4cnc([C@@H]5CCCN5C(=O)[C@@H](NC(=O)OC)C(C)C)[nH]4)cc3)ccc2C1)C(C)C (stereo partly drawn) [I-10, ((S)-1-{(S)-2-[6-(4-{2-[(S)-1-((S)-2-Methoxycarbonylamino-3-methyl-butyryl)-pyrrolidin-2-yl]-3H-imidazol-4-yl}-phenyl)-1,2,3,4-tetrahydro-naphthalen-2-ylcarbamoyl]-pyrrolidine-1-carbonyl}-2-methyl-propyl)-carbamic acid methyl ester]
The IC50 of the first is 2.8-fold lower: 0.43 nM for the first, 1.2 nM for the second. The first is the more potent here.

Going from COC(=O)N[C@H](C(=O)N1CCC[C@H]1c1ncc(-c2ccc(-c3ccc4cc(NC(=O)[C@@H]5CCCN5C(C)=O)ccc4n3)cc2)[nH]1)C(C)C [I-11, ((S)-1-{(S)-2-[5-(4-{6-[((S)-1-Acetyl-pyrrolidine-2-carbonyl)-amino]-quinolin-2-yl}-phenyl)-1H-imidazol-2-yl]-pyrrolidine-1-carbonyl}-2-methyl-propyl)-carbamic acid methyl ester] to COC(=O)N[C@H](C(=O)N1CCC[C@H]1c1ncc(-c2ccc(-c3ccc4cc(NC(=O)[C@@H]5CCCN5C(=O)C(C)C)ccc4n3)cc2)[nH]1)C(C)C [I-13, ((S)-1-{(S)-2-[5-(4-{6-[((S)-1-Isobutyryl-pyrrolidine-2-carbonyl)-amino]-quinolin-2-yl}-phenyl)-1H-imidazol-2-yl]-pyrrolidine-1-carbonyl}-2-methyl-propyl)-carbamic acid methyl ester], the IC50 rises from 0.63 nM to 1.06 nM (1.7-fold). The first is the more potent here.

Going from COC(=O)N[C@H](C(=O)N1CCC[C@H]1C(=O)N1CCc2cc(-c3ccc(-c4cnc([C@@H]5CCCN5C(=O)[C@@H](NC(=O)OC)C(C)C)[nH]4)cc3)ccc2C1)C(C)C [I-12, ((S)-1-{(S)-2-[5-(4-{2-[(S)-1-((S)-2-Methoxycarbonylamino-3-methyl-butyryl)-pyrrolidine-2-carbonyl]-1,2,3,4-tetrahydro-isoquinolin-6-yl}-phenyl)-1H-imidazol-2-yl]-pyrrolidine-1-carbonyl}-2-methyl-propyl)-carbamic acid methyl ester] to COC(=O)N[C@H](C(=O)N1CCC[C@H]1C(=O)NCc1ccc(-c2ccc(-c3cnc([C@@H]4CCCN4C(=O)[C@@H](NC(=O)OC)C(C)C)[nH]3)cc2)cc1)C(C)C [I-16, ((S)-1-{(S)-2-[(4′-{2-[(S)-1-((S)-2-Methoxycarbonylamino-3-methyl-butyryl)-pyrrolidin-2-yl]-3H-imidazol-4-yl}-biphenyl-4-ylmethyl)-carbamoyl]-pyrrolidine-1-carbonyl}-2-methyl-propyl)-carbamic acid methyl ester], the IC50 falls from 2.06 nM to 1.23 nM (1.7-fold).

COC(=O)N[C@H](C(=O)N1CCC[C@H]1c1ncc(-c2ccc(-c3ccc4cc(NC(=O)[C@@H]5CCCN5C(=O)CC(C)C)ccc4n3)cc2)[nH]1)C(C)C [I-14, [(S)-2-Methyl-1-((S)-2-{5-[4-(6-{[(S)-1-(3-methyl-butyryl)-pyrrolidine-2-carbonyl]-amino}-quinolin-2-yl)-phenyl]-1H-imidazol-2-yl}-pyrrolidine-1-carbonyl)-propyl]-carbamic acid methyl ester] and COC(=O)N[C@H](C(=O)N1CCC[C@H]1c1ncc(-c2ccc(-c3ccc4cc(NC(=O)[C@@H]5CCCN5C(=O)c5ccccc5)ccc4n3)cc2)[nH]1)C(C)C [I-15, ((S)-1-{(S)-2-[5-(4-{6-[((S)-1-Benzoyl-pyrrolidine-2-carbonyl)-amino]-quinolin-2-yl}-phenyl)-1H-imidazol-2-yl]-pyrrolidine-1-carbonyl}-2-methyl-propyl)-carbamic acid methyl ester] are within 1.5-fold of each other in IC50: 1.7 nM for the first, 1.4 nM for the second.
